The values below come from patent US20030199671A1, “Binding molecules for Fc-region polypeptides” (priority 2001, published 2003).

Positions of bridges follow the written chain, without caps; N, C: chain ends. Residues, ends and D or L forms follow the SMILES beside them.

The conditions of series [1]: cited from earlier work.
For a further series, the target named is IgG4 (Homo sapiens, UniProt P01861). Type of series: binding. Set-up: all human subtypes derived from myeloma patients; purchased Calbiochem 400126; host or cells: myeloma patients. The following applies: peptide immobilized on NHS activated sepharose 4 fast flow, target ligand density 2.0 μmole/ml; batch filterplate; hIgG4. The essentials:
(§1)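 Read-out is A280 of unbound IgG (1.4 mg/ml extinction coefficient), with percent bound derived against non-filtered or negative controls. Targets were incubated with immobilized peptides in PBST or TBST for 1-1.5 h at room temperature. Hydrolyzed Sepharose and immobilized Protein A serve as negative and positive controls.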

Series [2] in a line: Solubility in aqueous coupling buffer. It is filed as physicochemical. The following applies: aqueous coupling conditions. The source says: The varying degree of binding may be due to, in part, to lower coupling efficiencies as a result of varying degrees of solubility in aqueous coupling conditions. […] However, coupling efficiencies of all nine DX253 variants monitored by rp-HPLC was high and averaged>85%. Actual ligand densities were not determined.

The target in a further series is IgG3 (Homo sapiens, UniProt P01860). It is filed as binding. More on the design: all human subtypes derived from myeloma patients; purchased Calbiochem 400124; host or cells: myeloma patients. The note with it: peptide immobilized on NHS activated sepharose 4 fast flow, target ligand density 2.0 μmole/ml; batch filterplate; hIgG3. In outline:
(§2)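 Steps: dilute IgG in PBST or TBST; incubate with immobilized peptide 1-1.5 h, RT; collect unbound by centrifugation; measure A280; wash three times; elute with 0.1 M sodium bicarbonate pH 8.5 and/or 0.1 M sodium citrate pH 4.0 for 30-60 min and quantitate.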

Another series addresses T1, human IgG1 (Homo sapiens, UniProt P01857).
T1 construct: all human subtypes derived from myeloma patients; purchased Calbiochem 400120; host or cells: myeloma patients
Type of series: binding. The following applies: peptide immobilized on NHS activated sepharose 4 fast flow, target ligand density 2.0 μmole/ml; batch filterplate; hIgG1. In outline: as §2

In a further series the target is T2, human IgG2 (Homo sapiens, UniProt P01859).
T2 construct: all human subtypes derived from myeloma patients; purchased Calbiochem 400122; host or cells: myeloma patients
T2 sequence (P01859 1-326 isoform P01859-1): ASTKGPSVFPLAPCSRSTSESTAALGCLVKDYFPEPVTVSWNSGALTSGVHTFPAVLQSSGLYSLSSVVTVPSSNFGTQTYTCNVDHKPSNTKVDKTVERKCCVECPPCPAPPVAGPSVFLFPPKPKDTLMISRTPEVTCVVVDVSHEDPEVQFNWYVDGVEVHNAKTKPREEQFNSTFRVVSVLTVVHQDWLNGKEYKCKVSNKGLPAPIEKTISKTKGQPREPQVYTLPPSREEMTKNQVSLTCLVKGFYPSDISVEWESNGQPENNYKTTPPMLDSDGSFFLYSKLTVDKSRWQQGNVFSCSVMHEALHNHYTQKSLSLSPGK
It is filed as binding. The following applies: peptide immobilized on NHS activated sepharose 4 fast flow, target ligand density 2.0 μmole/ml; batch filterplate; hIgG2. The essentials: as §1

A further series deals with human IgG. It is filed as binding. The following applies: batch filterplate; for Batch Binding (% Capture of Total Load) hIgG: peptide immobilized on NHS activated sepharose 4 fast flow, target ligand density 2.0 μmole/ml. In outline: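 Species specificity was assessed by static binding of unfractionated IgG to peptide resin in pH 7.2 phosphate or pH 7.5 Tris buffer with 0.01% Tween 20. Bound fraction was calculated from A280 of unbound target.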

Chain of IgG3 (P01860 1-377 isoform P01860-1): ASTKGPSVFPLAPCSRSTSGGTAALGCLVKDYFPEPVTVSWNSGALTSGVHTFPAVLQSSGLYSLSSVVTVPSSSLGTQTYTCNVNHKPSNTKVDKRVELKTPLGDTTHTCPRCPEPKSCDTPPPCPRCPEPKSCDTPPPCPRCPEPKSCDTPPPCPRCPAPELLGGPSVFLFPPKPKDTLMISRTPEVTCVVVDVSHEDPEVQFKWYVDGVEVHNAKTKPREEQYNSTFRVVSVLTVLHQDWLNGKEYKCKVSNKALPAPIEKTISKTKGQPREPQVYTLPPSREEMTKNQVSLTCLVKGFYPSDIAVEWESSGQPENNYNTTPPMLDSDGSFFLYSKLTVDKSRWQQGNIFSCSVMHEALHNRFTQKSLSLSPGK
Chain of IgG4 (P01861 1-327 isoform P01861-1): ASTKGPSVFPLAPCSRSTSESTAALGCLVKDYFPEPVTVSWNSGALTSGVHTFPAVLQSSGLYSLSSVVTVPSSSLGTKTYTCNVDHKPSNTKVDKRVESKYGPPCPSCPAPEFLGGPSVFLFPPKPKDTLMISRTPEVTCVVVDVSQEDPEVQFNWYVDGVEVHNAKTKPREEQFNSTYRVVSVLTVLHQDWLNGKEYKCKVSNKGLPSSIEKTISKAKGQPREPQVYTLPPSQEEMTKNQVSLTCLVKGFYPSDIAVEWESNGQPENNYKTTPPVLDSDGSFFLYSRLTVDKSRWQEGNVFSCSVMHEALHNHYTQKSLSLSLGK
T1 sequence (P01857 1-330 isoform P01857-1): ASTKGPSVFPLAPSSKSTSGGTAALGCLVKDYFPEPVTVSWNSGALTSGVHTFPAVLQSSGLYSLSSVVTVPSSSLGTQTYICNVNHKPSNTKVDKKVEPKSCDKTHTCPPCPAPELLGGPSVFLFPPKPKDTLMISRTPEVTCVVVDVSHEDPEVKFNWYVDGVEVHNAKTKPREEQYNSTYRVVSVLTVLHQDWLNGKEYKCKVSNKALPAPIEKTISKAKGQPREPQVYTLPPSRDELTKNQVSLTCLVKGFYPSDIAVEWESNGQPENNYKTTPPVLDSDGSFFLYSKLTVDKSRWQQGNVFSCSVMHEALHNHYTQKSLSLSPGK

`O=C(O)c1ccccc1-c1c2cc(F)c(=O)cc-2oc2cc(O)c(F)cc12` [Oregon Green]: in series [1], the “pKa of the carboxylic acid group” value is 4.7.

Turning to `CC(=O)N[C@@H](CCCNC(=N)N)C(=O)N[C@@H](CCCNC(=N)N)C(=O)N[C@@H](C)C(=O)N[C@H]1CSSC[C@@H](C(=O)N[C@@H](C)C(=O)NCC(=O)N[C@@H](Cc2c[nH]cn2)C(=O)N[C@@H](CCC(=O)O)C(=O)N2CCC[C@H]2C(=O)NCC(=O)N2CCC[C@H]2C(=O)N[C@@H](CCC(=O)O)C(=O)NCC(=O)NCC(=O)NCC(=O)N[C@@H](CCCCN)C(N)=O)NC(=O)[C@H](Cc2c[nH]c3ccccc23)NC(=O)[C@H](C(C)C)NC(=O)[C@H](CC(C)C)NC(=O)[C@H](C)NC(=O)CNC(=O)[C@H](CO)NC(=O)[C@H](Cc2c[nH]c3ccccc23)NC(=O)[C@H](CC(=O)O)NC(=O)[C@H](CCCNC(=N)N)NC(=O)[C@H](CO)NC1=O` [DX1140] (Ac-RRACSRDWSGALVWCAGHEPGPEGGGK-NH2; disulfide 4-15), the “Batch Binding (% Capture of Total Load) hIgG4” value at IgG4 is reported as 20%. The “Solubility in aqueous coupling buffer” value in series [2] is listed as “not fully soluble”. In addition, the “Batch Binding (% Capture of Total Load) hIgG3” value on IgG3 came out at 0%. Also, the “Batch Binding (% Capture of Total Load) hIgG1” value at human IgG1 came to 43%. For the same compound, the “Batch Binding (% Capture of Total Load) hIgG2” value on human IgG2 came out at 29%. The “Batch Binding (% Capture of Total Load) hIgG” value in the series on human IgG amounted to 40%.

Consider `CC(=O)NCC(=O)N[C@H]1CSSC[C@@H](C(=O)N[C@@H](C)C(=O)NCC(=O)N[C@@H](Cc2c[nH]cn2)C(=O)N[C@@H](CCC(=O)O)C(=O)N2CCC[C@H]2C(=O)NCC(=O)N2CCC[C@H]2C(=O)N[C@@H](CCC(=O)O)C(=O)NCC(=O)NCC(=O)NCC(=O)N[C@@H](CCCCN)C(N)=O)NC(=O)[C@H](Cc2c[nH]c3ccccc23)NC(=O)[C@H](C(C)C)NC(=O)[C@H](CC(C)C)NC(=O)[C@H](C)NC(=O)CNC(=O)[C@H](CO)NC(=O)[C@H](Cc2c[nH]c3ccccc23)NC(=O)[C@H](CC(=O)O)NC(=O)[C@H](CCCNC(=N)N)NC(=O)[C@H](CO)NC1=O` [DX1146] (Ac-GCSRDWSGALVWCAGHEPGPEGGGK-NH2; disulfide 2-13), for which, at IgG4, the “Batch Binding (% Capture of Total Load) hIgG4” value is 50%. The “Solubility in aqueous coupling buffer” value in series [2] is reported as “not fully soluble”. Moreover, at IgG3, the “Batch Binding (% Capture of Total Load) hIgG3” value amounted to 0%. Moreover, the “Batch Binding (% Capture of Total Load) hIgG1” value on human IgG1 came out at 83%. For the same compound, on human IgG2, the “Batch Binding (% Capture of Total Load) hIgG2” value is 80%. Moreover, the “Batch Binding (% Capture of Total Load) hIgG” value with human IgG is given as 73%.

As for `CC(=O)N[C@H]1CSSC[C@@H](C(=O)N[C@@H](C)C(=O)NCC(=O)N[C@@H](Cc2c[nH]cn2)C(=O)N[C@@H](CCC(=O)O)C(=O)N2CCC[C@H]2C(=O)NCC(=O)N2CCC[C@H]2C(=O)N[C@@H](CCC(=O)O)C(=O)NCC(=O)NCC(=O)NCC(=O)N[C@@H](CCCCN)C(N)=O)NC(=O)[C@H](Cc2c[nH]c3ccccc23)NC(=O)[C@H](C(C)C)NC(=O)[C@H](CC(C)C)NC(=O)[C@H](C)NC(=O)CNC(=O)[C@H](CO)NC(=O)[C@H](Cc2c[nH]c3ccccc23)NC(=O)[C@H](CC(=O)O)NC(=O)[C@H](CCCNC(=N)N)NC(=O)[C@H](CO)NC1=O` [DX1147] (Ac-CSRDWSGALVWCAGHEPGPEGGGK-NH2; disulfide 1-12), the “Batch Binding (% Capture of Total Load) hIgG4” value at IgG4 is listed as 47%. In series [2], the “Solubility in aqueous coupling buffer” value is listed as “not fully soluble”. Besides, the “Batch Binding (% Capture of Total Load) hIgG3” value at IgG3 was found to be 0%. The “Batch Binding (% Capture of Total Load) hIgG1” value on human IgG1 was determined as 83%. The “Batch Binding (% Capture of Total Load) hIgG2” value on human IgG2 is given as 76%. Besides, the “Binding properties / profile relative to parent peptide” value in the series on human IgG (human IgG and subtypes) is reported as “almost identical to those of DX253”. For the same compound, the “Batch Binding (% Capture of Total Load) hIgG” value in the series on human IgG is recorded as 74%.

As for `CC(=O)N[C@@H](CO)C(=O)N[C@@H](CCCNC(=N)N)C(=O)N[C@@H](C)C(=O)N[C@H]1CSSC[C@@H](C(=O)N[C@@H](C)C(=O)NCC(=O)N[C@@H](Cc2c[nH]cn2)C(=O)N[C@@H](CCC(=O)O)C(=O)N2CCC[C@H]2C(=O)NCC(=O)N2CCC[C@H]2C(=O)N[C@@H](CCC(=O)O)C(=O)NCC(=O)NCC(=O)NCC(=O)N[C@@H](CCCCN)C(N)=O)NC(=O)[C@H](Cc2c[nH]c3ccccc23)NC(=O)[C@H](C(C)C)NC(=O)[C@H](CC(C)C)NC(=O)[C@H](C)NC(=O)CNC(=O)[C@H](CO)NC(=O)[C@H](Cc2c[nH]c3ccccc23)NC(=O)[C@H](CC(=O)O)NC(=O)[C@H](CCCNC(=N)N)NC(=O)[C@H](CO)NC1=O` [DX1139] (Ac-SRACSRDWSGALVWCAGHEPGPEGGGK-NH2; disulfide 4-15), the “Batch Binding (% Capture of Total Load) hIgG4” value on IgG4 came out at 22%. The “Solubility in aqueous coupling buffer” value in series [2] is “not fully soluble”. Besides, on IgG3, the “Batch Binding (% Capture of Total Load) hIgG3” value came out at 0%. Also, on human IgG1, the “Batch Binding (% Capture of Total Load) hIgG1” value is reported as 43%. The “Batch Binding (% Capture of Total Load) hIgG2” value on human IgG2 came to 34%. Moreover, the “Batch Binding (% Capture of Total Load) hIgG” value in the series with human IgG stood at 36%.
